Source: US6914045B2, “Glycopeptide antibiotics” (Wyeth Holdings Corporation, priority 2001, dated 2005)
In brackets after ≈: the same amount, converted by molar mass.

Experiments:
Assay in all cases: in vitro antibacterial evaluation, MIC by broth dilution
Type in all cases: cell-based
Enterococcus sp. = system: Enterococcus sp.
How it was run: (§1)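 MIC, the lowest antibiotic concentration preventing growth, was read across 64-0.06 μg/mL with 5×10^5 CFU/mL inoculum. Method followed NCCLS M7-A2 broth dilution using Mueller-Hinton II; Gram-positive strains covered recent methicillin-, penicillin- and/or vancomycin-resistant clinical isolates.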

Staphylococcus sp. = system: Staphylococcus sp.
How it was run: as §1

Streptococcus sp. = system: Streptococcus sp.
How it was run: as §1

Escherichia coli = system: Escherichia coli
How it was run: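 MIC is the lowest antibiotic concentration (tested 64-0.06 μg/mL) preventing growth of a 5×10^5 CFU/mL inoculum. Determined by broth dilution in Mueller-Hinton II medium following NCCLS standard M7-A2.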

Compound	MIC Enterococcus avium (GC 4558) (Enterococcus sp.)	MIC Enterococcus faecalis (ATCC 29212) (Enterococcus sp.)	MIC Enterococcus faecalis (GC 2242) (Enterococcus sp.)	MIC Enterococcus faecalis (GC 2691) (Enterococcus sp.)	MIC Enterococcus faecalis (GC 3059) (Enterococcus sp.)	MIC Enterococcus faecalis (GC 4552) (Enterococcus sp.)	MIC Enterococcus faecalis (GC 4553) (Enterococcus sp.)	MIC Enterococcus faecalis (GC 4554) (Enterococcus sp.)	MIC Enterococcus faecalis (GC 6189) (Enterococcus sp.)	MIC Enterococcus faecium (GC 2243) (Enterococcus sp.)	MIC Enterococcus faecium (GC 4556) (Enterococcus sp.)	MIC Enterococcus faecium (GC 4557) (Enterococcus sp.)	MIC Coagulase Negative Staphylococcus (GC 4547) (Staphylococcus sp.)	MIC Coagulase Negative Staphylococcus (GC 4548) (Staphylococcus sp.)	MIC Coagulase Negative Staphylococcus (GC 4549) (Staphylococcus sp.)	MIC Coagulase Negative Staphylococcus (GC 4551) (Staphylococcus sp.)	MIC Coagulase Negative Staphylococcus (GC 6257) (Staphylococcus sp.)	MIC Staphylococcus aureus (ATCC 29213) (Staphylococcus sp.)	MIC Staphylococcus aureus (GC 1131) (Staphylococcus sp.)	MIC Staphylococcus aureus (GC 3051) (Staphylococcus sp.)	further results
CC(c1ccccc1)C1NC(=O)CNC(=O)C(CO)NC(=O)C(C(O)C2CNC(=N)N2C2OC(CO)C(O)C(O)C2O)NC(=O)C(C(O)C2CNC(=N)N2)NC(=O)C(Cc2ccc3oc(-c4ccc5c(c4)Cc4ccccc4-5)nc3c2)NC1=O (stereo not drawn) [Example 37, Cyclo[3-[2-(9H-fluoren-2-yl)-1,3-benzoxazol-5-yl]alanyl-3-(2-iminoimidazolidin-4-yl)seryl-3-(3-hexopyranosyl-2-iminoimidazolidin-4-yl)serylserylglycyl-β-methylphenylalanyl]]	8 µg/mL (≈ 6.9 µM)	16 µg/mL (≈ 13.8 µM)	16 µg/mL (≈ 13.8 µM)	16 µg/mL (≈ 13.8 µM)	16 µg/mL (≈ 13.8 µM)	16 µg/mL (≈ 13.8 µM)	4 µg/mL (≈ 3.45 µM)	16 µg/mL (≈ 13.8 µM)	16 µg/mL (≈ 13.8 µM)	8 µg/mL (≈ 6.9 µM)	16 µg/mL (≈ 13.8 µM)	4 µg/mL (≈ 3.45 µM)	16 µg/mL (≈ 13.8 µM)	8 µg/mL (≈ 6.9 µM)	8 µg/mL (≈ 6.9 µM)	8 µg/mL (≈ 6.9 µM)	4 µg/mL (≈ 3.45 µM)	16 µg/mL (≈ 13.8 µM)	8 µg/mL (≈ 6.9 µM)	8 µg/mL (≈ 6.9 µM)	MIC Staphylococcus aureus (GC 3053) (Staphylococcus sp.): 8 µg/mL (≈ 6.9 µM); MIC Staphylococcus aureus (GC 4541) (Staphylococcus sp.): 8 µg/mL (≈ 6.9 µM); MIC Staphylococcus aureus (GC 4542) (Staphylococcus sp.): 8 µg/mL (≈ 6.9 µM); MIC Staphylococcus aureus (GC 4544) (Staphylococcus sp.): 8 µg/mL (≈ 6.9 µM); MIC Staphylococcus aureus (GC 4545) (Staphylococcus sp.): 16 µg/mL (≈ 13.8 µM); MIC Staphylococcus aureus-SMITH (GC 4543) (Staphylococcus sp.): 8 µg/mL (≈ 6.9 µM); MIC Staphylococcus haemolyticus (GC 4546) (Staphylococcus sp.): 8 µg/mL (≈ 6.9 µM); MIC Streptococcus agalactiae (GC 4564) (Streptococcus sp.): 16 µg/mL (≈ 13.8 µM); MIC Streptococcus pneumoniae (ATCC 6301) (Streptococcus sp.): 32 µg/mL (≈ 27.6 µM); MIC Streptococcus pneumoniae (GC 1894) (Streptococcus sp.): 16 µg/mL (≈ 13.8 µM); MIC Streptococcus pneumoniae (GC 4565) (Streptococcus sp.): 16 µg/mL (≈ 13.8 µM); MIC Streptococcus pyogenes (GC 4563) (Streptococcus sp.): 4 µg/mL (≈ 3.45 µM); MIC Escherichia coli (ATCC 25922) (Escherichia coli): 128 µg/mL (≈ 110 µM); MIC Escherichia coli (GC 4559) (Escherichia coli): >128 µg/mL; MIC Escherichia coli (GC 4560) (Escherichia coli): 4 µg/mL (≈ 3.45 µM)
Cyclo[3-[[2-(2,3,4,6-tetra-O-benzoylhexopyranosyl)amino]-1,3-benzoxazol-5-yl]alanyl-3-(2-iminoimidazolidin-4-yl)seryl-3-(3-hexopyranosyl-2-iminoimidazolidin 4-yl)seryl-serylglycyl-β-methylphenylalanyl] [Example 44]	4 µg/mL	16 µg/mL	16 µg/mL	16 µg/mL	32 µg/mL	16 µg/mL	8 µg/mL	32 µg/mL	16 µg/mL	8 µg/mL	32 µg/mL	8 µg/mL	64 µg/mL	8 µg/mL	2 µg/mL	16 µg/mL	8 µg/mL	64 µg/mL	64 µg/mL	64 µg/mL	MIC Staphylococcus aureus (GC 3053) (Staphylococcus sp.): 32 µg/mL; MIC Staphylococcus aureus (GC 4541) (Staphylococcus sp.): 64 µg/mL; MIC Staphylococcus aureus (GC 4542) (Staphylococcus sp.): 64 µg/mL; MIC Staphylococcus aureus (GC 4544) (Staphylococcus sp.): 16 µg/mL; MIC Staphylococcus aureus (GC 4545) (Staphylococcus sp.): 16 µg/mL; MIC Staphylococcus aureus-SMITH (GC 4543) (Staphylococcus sp.): 32 µg/mL; MIC Staphylococcus haemolyticus (GC 4546) (Staphylococcus sp.): 64 µg/mL; MIC Streptococcus agalactiae (GC 4564) (Streptococcus sp.): 16 µg/mL; MIC Streptococcus pneumoniae (ATCC 6301) (Streptococcus sp.): 8 µg/mL; MIC Streptococcus pneumoniae (GC 1894) (Streptococcus sp.): 16 µg/mL; MIC Streptococcus pneumoniae (GC 4565) (Streptococcus sp.): 32 µg/mL; MIC Streptococcus pyogenes (GC 4563) (Streptococcus sp.): 4 µg/mL; MIC Escherichia coli (ATCC 25922) (Escherichia coli): >64 µg/mL; MIC Escherichia coli (GC 4559) (Escherichia coli): >64 µg/mL; MIC Escherichia coli (GC 4560) (Escherichia coli): 64 µg/mL
